Experiment: Cycle 1 normal organ dosimetry (SPECT/CT, TIACs, OLINDA 2.2.3)
Format: in vivo, human
Conditions: for Absorbed Dose in Cycle 1, Mean / Absorbed Dose in Cycle 1, max / Absorbed Dose in Cycle 1, min: N = 16 patients imaged at cycle 1 and 3; for Absorbed Dose, Mean / Absorbed Dose, max / Absorbed Dose, median / Absorbed Dose, min: Cycle 1, n = 26
Protocol: This Example presents the biodistribution, dosimetry, and pharmacokinetics (PK) results of a PK/Dosimetry sub-study performed as part of a Phase III trial. Twenty-seven (27) patients were administered a target activity of 7.4±10% GBq of ^177Lu-PSMA-I&T and underwent single photon emission computed tomography (SPECT)/computed tomography (CT) imaging at four timepoints (4 h, 24 h, 48 h, and 168 h). Image data was analysed to compute time-activity curves (TACs) and subsequently time-integrated activity coefficients (TIACs) in each organ of interest and in organs showing appreciable and meaningful ^177Lu-PSMA-I&T activity. Organ Level Internal Dose Assessment (OLINDA 2.2.3) was used to compute organ and whole body absorbed radiation doses for each patient.
All participating sites underwent a rigorous site setup process during which all dose calibrators, scanners, and gamma counters used in the sub-study were calibrated. Sites were allowed to enroll patients in the sub-study only after the completion and approval of all site setup processes by Invicro. Patients underwent SPECT/CT imaging, with anatomical coverage typically extending from the salivary glands to the pelvis, following the administration of a targeted 7.4±10% GBq of ^177Lu-PSMA-I&T at cycle 1. SPECT/CT imaging was performed at four timepoints: 4 h, 24 h, 48 h, and 168 h post-injection. Additionally, a subset of patients imaged at Cycle 1 (16 out of 27), were also imaged at Cycle 3 (Table 2).
In general, raw projection data was acquired into a 128×128 matrix with medium energy general purpose (MEGP) collimation using a step and shoot acquisition mode, acquiring 60 projections per detector (180 degrees rotation per detector), 20 seconds per projection, with an acquisition zoom of 1.0, and a 20% (±10%) energy window centered over 208 keV.
A low-dose CT scan was performed prior to beginning the SPECT scan for attenuation correction. Sites were instructed to use the Institutional standard parameters for acquisition of the low-dose CT. Institutional standard reconstruction parameters were used. Scatter correction was required to be applied using a 20% (±10%) scatter window centered over 170 keV.
The imaging data was analyzed using Invicro's VivoQuant software, a validated software used in a 21 CFR § 11-compliant workflow. The general quantification approach was based on the principles detailed in the Medical Internal Radiation Dose (MIRD) Pamphlet No. 16, No 23, and No 26 as appropriate.
SPECT images were calibrated in units of Becquerel (Bq) using a calibration factor derived from a source of known activity, measured during site set up with the same acquisition and reconstruction parameters employed for patient imaging. A patient-specific calibration factor was also derived at each clinical time point after acquisition of the patient SPECT/CT. As a quality control measure, if the patient-specific calibration factor differed by more than 10% from the site set up calibration factor, an investigation was conducted.
Volume of interest (VOI) (kidneys, bladder, liver, lumbar vertebrae L2-L4, lacrimal glands, salivary glands [parotid and submandibular glands], and whole body) were delineated on each dataset by a trained image analyst. […] Organs were segmented either by drawing the entire contour of the organ, or by placing a sphere in a representative region of the organ and then multiplying by the organ's effective mass (based on patient's height and weight). Segmentation methods for each organ are specified in Table 3 and were consistently applied to each patient.
Clearance of the radiopharmaceutical was derived from a data-appropriate fit of each organ's TAC. Depending on the TAC's shape, the data was fitted with the sum of one, two, or three exponentials, or using a rise and fall model. Fitting was performed with in-house Python software. TIACs were calculated through analytical integration of the curve fit extrapolated to infinity. […]

[1] = cycle 1, target 7.4±10% GBq, mean±SD, patient 42-030 excluded

O=C(O)CC[C@H](NC(=O)N[C@@H](CCCCNC(=O)CCCCCCC(=O)NCCCC[C@@H](NC(=O)[C@@H](Cc1ccccc1)NC(=O)[C@@H](Cc1ccc(O)c(I)c1)NC(=O)CC[C@H](C(=O)O)N1CCN(CC(=O)O)CCN(CC(=O)O)CCN(CC(=O)O)CC1)C(=O)O)C(=O)O)C(=O)O [^177Lu-PSMA-I&T, (3S,7 S,26R,29R,32R,37R)-29-benzyl-32-(4-hydroxy-3-iodobenzyl)-5,13,20,28,31,34-hexaoxo-37-(4,7,10-tris(carboxymethyl)-1,4,7,10-tetraazacyclododecan-1-yl)-4,6,12,21,27,30,33-heptaazaheptatriacontane-1,3,7,26,37-pentacarboxylic acid; lutetium-177 (III), metal not drawn]
Absorbed Dose in Cycle 1, Mean (Prostate): 0.02 Gy/GBq
Absorbed Dose in Cycle 1, max (Prostate): 0.07 Gy/GBq
Absorbed Dose in Cycle 1, min (Prostate): 0.01 Gy/GBq
Absorbed Dose, Mean (Rectum): 0.44 Gy/GBq
Absorbed Dose, max (Rectum): 1.46 Gy/GBq
Absorbed Dose, median (Rectum): 0.39 Gy/GBq
Absorbed Dose, min (Rectum): 0.01 Gy/GBq
Absorbed Dose in Cycle 1, Mean (Rectum): 0.50 Gy/GBq
Absorbed Dose in Cycle 1, max (Rectum): 1.46 Gy/GBq
Absorbed Dose in Cycle 1, min (Rectum): 0.01 Gy/GBq
Absorbed Dose, Mean (Red Marrow): 0.08 Gy/GBq
Absorbed Dose, max (Red Marrow): 0.49 Gy/GBq
Absorbed Dose, median (Red Marrow): 0.03 Gy/GBq
Absorbed Dose, min (Red Marrow): 0.00 Gy/GBq
Absorbed Dose in Cycle 1, Mean (Red Marrow): 0.05 Gy/GBq
Absorbed Dose in Cycle 1, max (Red Marrow): 0.28 Gy/GBq
Absorbed Dose in Cycle 1, min (Red Marrow): 0.00 Gy/GBq
Absorbed Dose, Mean (Right Colon): 0.25 Gy/GBq
Absorbed Dose, max (Right Colon): 0.82 Gy/GBq
Absorbed Dose, median (Right Colon): 0.22 Gy/GBq
Absorbed Dose, min (Right Colon): 0.01 Gy/GBq
Absorbed Dose in Cycle 1, Mean (Right Colon): 0.28 Gy/GBq
Absorbed Dose in Cycle 1, max (Right Colon): 0.82 Gy/GBq
Absorbed Dose in Cycle 1, min (Right Colon): 0.01 Gy/GBq
Absorbed Dose, Mean (Salivary Glands): 0.19 Gy/GBq
Absorbed Dose, max (Salivary Glands): 0.80 Gy/GBq
Absorbed Dose, median (Salivary Glands): 0.15 Gy/GBq
Absorbed Dose, min (Salivary Glands): 0.03 Gy/GBq
Absorbed Dose in Cycle 1, Mean (Salivary Glands): 0.17 Gy/GBq
Absorbed Dose in Cycle 1, max (Salivary Glands): 0.80 Gy/GBq
Absorbed Dose in Cycle 1, min (Salivary Glands): 0.03 Gy/GBq
Absorbed Dose, Mean (Small intestine): 0.05 Gy/GBq
Absorbed Dose, max (Small intestine): 0.15 Gy/GBq
Absorbed Dose, median (Small intestine): 0.04 Gy/GBq
Absorbed Dose, min (Small intestine): 0.01 Gy/GBq
Absorbed Dose in Cycle 1, Mean (Small intestine): 0.06 Gy/GBq
Absorbed Dose in Cycle 1, max (Small intestine): 0.15 Gy/GBq
Absorbed Dose in Cycle 1, min (Small intestine): 0.01 Gy/GBq
Absorbed Dose, Mean (Spleen): 0.03 Gy/GBq
Absorbed Dose, max (Spleen): 0.11 Gy/GBq
Absorbed Dose, median (Spleen): 0.02 Gy/GBq
Absorbed Dose, min (Spleen): 0.01 Gy/GBq
Absorbed Dose in Cycle 1, Mean (Spleen): 0.03 Gy/GBq
Absorbed Dose in Cycle 1, max (Spleen): 0.11 Gy/GBq
Absorbed Dose in Cycle 1, min (Spleen): 0.01 Gy/GBq
Absorbed Dose, Mean (Stomach Wall): 0.02 Gy/GBq
Absorbed Dose, max (Stomach Wall): 0.07 Gy/GBq
Absorbed Dose, median (Stomach Wall): 0.01 Gy/GBq
Absorbed Dose, min (Stomach Wall): 0.00 Gy/GBq
Absorbed Dose in Cycle 1, Mean (Stomach Wall): 0.02 Gy/GBq
Absorbed Dose in Cycle 1, max (Stomach Wall): 0.07 Gy/GBq
Absorbed Dose in Cycle 1, min (Stomach Wall): 0.00 Gy/GBq
Absorbed Dose, Mean (Testes): 0.01 Gy/GBq
Absorbed Dose, max (Testes): 0.07 Gy/GBq
Absorbed Dose, median (Testes): 0.01 Gy/GBq
Absorbed Dose, min (Testes): 0.00 Gy/GBq
Absorbed Dose in Cycle 1, Mean (Testes): 0.01 Gy/GBq
Absorbed Dose in Cycle 1, max (Testes): 0.07 Gy/GBq
Absorbed Dose in Cycle 1, min (Testes): 0.00 Gy/GBq
Absorbed Dose, Mean (Thymus): 0.01 Gy/GBq
Absorbed Dose, max (Thymus): 0.07 Gy/GBq
Absorbed Dose, median (Thymus): 0.01 Gy/GBq
Absorbed Dose, min (Thymus): 0.00 Gy/GBq
Absorbed Dose in Cycle 1, Mean (Thymus): 0.01 Gy/GBq
Absorbed Dose in Cycle 1, max (Thymus): 0.07 Gy/GBq
Absorbed Dose in Cycle 1, min (Thymus): 0.00 Gy/GBq
Absorbed Dose, Mean (Thyroid): 0.01 Gy/GBq
Absorbed Dose, max (Thyroid): 0.07 Gy/GBq
Absorbed Dose, median (Thyroid): 0.01 Gy/GBq
Absorbed Dose, min (Thyroid): 0.00 Gy/GBq
Absorbed Dose in Cycle 1, Mean (Thyroid): 0.01 Gy/GBq
Absorbed Dose in Cycle 1, max (Thyroid): 0.07 Gy/GBq
Absorbed Dose in Cycle 1, min (Thyroid): 0.00 Gy/GBq
Absorbed Dose, Mean (Total Body): 0.02 Gy/GBq
Absorbed Dose, max (Total Body): 0.09 Gy/GBq
Absorbed Dose, median (Total Body): 0.02 Gy/GBq
Absorbed Dose, min (Total Body): 0.01 Gy/GBq
Absorbed Dose in Cycle 1, Mean (Total Body): 0.02 Gy/GBq
Absorbed Dose in Cycle 1, max (Total Body): 0.09 Gy/GBq
Absorbed Dose in Cycle 1, min (Total Body): 0.01 Gy/GBq
Absorbed Dose, Mean (Urinary Bladder wall): 0.41 Gy/GBq
Absorbed Dose, max (Urinary Bladder wall): 0.50 Gy/GBq
Absorbed Dose, median (Urinary Bladder wall): 0.41 Gy/GBq
Absorbed Dose, min (Urinary Bladder wall): 0.33 Gy/GBq
Absorbed Dose in Cycle 1, Mean (Urinary Bladder wall): 0.40 Gy/GBq
Absorbed Dose in Cycle 1, max (Urinary Bladder wall): 0.47 Gy/GBq
Absorbed Dose in Cycle 1, min (Urinary Bladder wall): 0.33 Gy/GBq
mean red marrow absorbed dose, remaining 20 patients (cycle 1, excluding six patients with unusually high marrow doses and the patient with a superscan): 0.02±0.02 Gy/GBq
mean red marrow (bone marrow) absorbed radiation dose (cycle 1, image-based method (L2-L4), mean±SD, patient 42-030 excluded): 0.08±0.12 Gy/GBq
absorbed radiation dose per gram of tissue, kidneys [1]: 0.41±0.15 Gy/GBq
absorbed radiation dose per gram of tissue, lacrimal glands [1]: 0.40±0.36 Gy/GBq
absorbed radiation dose per gram of tissue, left colon [1]: 0.47±0.31 Gy/GBq
absorbed radiation dose per gram of tissue, rectum [1]: 0.44±0.30 Gy/GBq
absorbed radiation dose per gram of tissue, urinary bladder [1]: 0.41±0.05 Gy/GBq
absorbed radiation dose per gram of tissue, salivary glands (cycle 1, target 7.4±10% GBq, mean±SD, patients 42-030 and 12-004 excluded): 0.19±0.16 Gy/GBq

— US20250262336A1, “[177LU] LUTETIUM-PSMA I&T COMPOSITION AND DOSIMETRY, KIT, METHOD OF MAKING, AND METHOD OF USING THEREOF” (Curium US LLC, priority 2023, published 2025)
